How the values were obtained:
[1] = biological target: KRAS G12D GDP protein (His-tag-KRAS G12D) (Homo sapiens (Human), UniProt P01116, G12D); assay: AlphaLISA compound screening assay, KRAS-GDP protein format; conditions: AlphaLISA with SOS1, GTP, cRAF, read-out: GDP-format IC50 (nM)/ Binding assay
Protocol: • Buffer 1: Composition and final concentrations: 25 mM HEPES, pH 7.5; 10 mM MgCl2; 0.01% Triton X-100. • Buffer 2: Composition and final concentrations: 25 mM HEPES, pH 7.5; 10 mM MgCl2; 0.01% Triton X-100; 1 mM DTT.
• 4> Use the ECHO555 automated liquid handler to prepare compounds. Test concentrations: The maximum compound concentration is 10 μM or 1 μM, serially diluted 3-fold, with 10 concentrations tested. Each concentration is tested in duplicate, with 0.5% DMSO as the solvent. • 5> High Signal Control Group (High Control): 30 replicates with 0.5% DMSO. KRAS protein is included in the reaction, representing 0% inhibition • 6> Low Signal Control Group (Low Control): 30 replicates with 0.5% DMSO. KRAS protein is not involved in the reaction, representing 100% inhibition
d. KRAS-GDP Protein Assay Procedure • 6> Add 5 μL of KRAS solution prepared with Buffer 1 to each well of the high-signal control group and compound test wells. Add 5 μL of Buffer 1 to each well of the low-signal control group. […] Incubate at room temperature for 1 hour. • 10> Measure the signal values using an EnVision plate reader. […] Incubate at room temperature for 1 hour. • 10> Measure the signal values using an EnVision plate reader. […] Incubate at room temperature for 1 hour. • 10> Measure the signal values using an EnVision plate reader. […]

[2] = biological target: KRAS G12D GTP protein (His-tag-KRAS G12D) (Homo sapiens (Human), UniProt P01116, G12D); assay: AlphaLISA compound screening assay, KRAS-GTP protein format; conditions: AlphaLISA with cRAF, read-out: GTP-format IC50 (nM)/ Binding assay
KRAS G12D GTP protein (His-tag-KRAS G12D), sequence (P01116-2 other isoform, or with tags, fused parts or gaps G12D): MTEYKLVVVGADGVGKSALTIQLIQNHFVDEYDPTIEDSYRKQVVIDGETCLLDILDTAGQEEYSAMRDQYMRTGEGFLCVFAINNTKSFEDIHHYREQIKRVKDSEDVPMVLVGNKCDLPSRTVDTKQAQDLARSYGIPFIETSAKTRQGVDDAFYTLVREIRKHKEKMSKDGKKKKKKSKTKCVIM

[3] = biological target: KRAS G12D GCP protein (His-tag-KRAS G12D) (Homo sapiens (Human), UniProt P01116, G12D); assay: AlphaLISA compound screening assay, KRAS-GCP protein format; conditions: AlphaLISA with cRAF, read-out: GCP-format IC50 (nM)/ Binding assay
KRAS G12D GCP protein (His-tag-KRAS G12D), sequence (P01116-2 other isoform, or with tags, fused parts or gaps G12D): as above

[4] = system: pERK in AGS cells; assay: ERK phosphorylation cell assay, AGS; format: cell-based; conditions: 3 hours compound incubation, read-out: pERK AGS_IC50
How it was run: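 AGS […] cells, seeded overnight, were treated with compound for 3 hours at 37° C. pERK was detected by in-cell immunofluorescence, with GAPDH as normalizer, using 800CW/680RD secondary antibodies. Mean relative p-ERK levels were fitted against log concentration, with DMSO as negative and 10 μM Reference as positive control.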

[5] = system: pERK in AsPC-1 cells; assay: ERK phosphorylation cell assay, AsPC-1; format: cell-based; conditions: AsPC-1 cells; read-out: pERK AsPC-1_IC50
[6] = system: AGS cells; assay: 3D cell proliferation assay (CellTiter-Glo 3D), AGS; format: cell-based; conditions: 5 days, read-out: 3D Proliferation Inhibition AGS_IC50
How it was run: (§1)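 Cells grown with compound as 3D cultures in low-adsorption plates for 5 days at 37° C, 5% CO2. Viability read as ATP luminescence (CellTiter-Glo 3D), normalised to DMSO and medium-only controls; IC50 from non-linear fit of inhibition versus log concentration.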

[7] = system: AsPC-1 cells; assay: 3D cell proliferation assay (CellTiter-Glo 3D), AsPC-1; format: cell-based; conditions: 5 days, read-out: 3D Proliferation Inhibition AsPC-1_IC50
How it was run: as §1

KRAS G12D GDP protein (His-tag-KRAS G12D), sequence (P01116-2 other isoform, or with tags, fused parts or gaps G12D): as above

| Structure (SMILES) | IC50 [1] | IC50 [2] | IC50 [3] | IC50 [4] | IC50 [5] | IC50 [6] | IC50 [7] |
| --- | --- | --- | --- | --- | --- | --- | --- |
| O=C1CCCCCc2c(F)ccc3cc(O)cc(c23)-c2c(cc3c(N4CC5CCC(C4)N5)nc(OC[C@@]45CCCN4C[C@H](F)C5)nc3c2F)N1 [Example 9B, 12-((1R,5S)-3,8-diazabicyclo[3.2.1]octan-3-yl)-3,16-difluoro-14-(((2R,7aS)-2-fluorotetrahydro-1H-pyrazin-7a(5H)-yl)methoxy)-18-hydroxy-5,6,7,8-tetrahydro-4H-naphtho[1′,8′:4,5,6][1]azacyclododecino[2,3-g]quinazolin-9(10H)-one] | 1.6 nM | 1.95 nM | 58.5 nM | 17 nM | 70 nM | 93 nM | 222 nM |
| O=C1CCCCCCCCCc2c(F)ccc3cc(O)cc(c23)-c2c(cc3c(N4CC5CCC(C4)N5)nc(OC[C@@]45CCCN4C[C@H](F)C5)nc3c2F)N1 [Example 11, 16-((1R,5S)-3,8-diazabicyclo[3.2.1]octan-3-yl)-3,20-difluoro-18-(((2R,7aS)-2-fluorotetrahydro-1H-pyrazin-7a(5H)-yl)methoxy)-22-hydroxy-5,6,7,8,9,10,11,12-octahydro-4H-naphtho[1′,8′:4,5,61][1]azacyclohexadecano[2,3-g]quinazolin-13(14H)-one] | 500 nM | 726 nM | 909 nM |  |  |  |  |
